Here are results for 20 compounds from patent US5801178A, “Aniline derivative having polyunsaturated fatty acid residue and use thereof” (Nippon Shoji Kaish Ltd., priority 1995, dated 1998).

Experiment [1] has as its target T1, ACAT derived from human macrophage (Homo sapiens, UniProt P35610).
T1 construct: Using, as an enzyme source, microsomal fractions prepared in the manner described below under Preparation of Microsome from U937 cells; endogenous in cells; host or cells: U937 cells differentiated with TPA, microsomal fraction
T1 sequence (P35610 1-550): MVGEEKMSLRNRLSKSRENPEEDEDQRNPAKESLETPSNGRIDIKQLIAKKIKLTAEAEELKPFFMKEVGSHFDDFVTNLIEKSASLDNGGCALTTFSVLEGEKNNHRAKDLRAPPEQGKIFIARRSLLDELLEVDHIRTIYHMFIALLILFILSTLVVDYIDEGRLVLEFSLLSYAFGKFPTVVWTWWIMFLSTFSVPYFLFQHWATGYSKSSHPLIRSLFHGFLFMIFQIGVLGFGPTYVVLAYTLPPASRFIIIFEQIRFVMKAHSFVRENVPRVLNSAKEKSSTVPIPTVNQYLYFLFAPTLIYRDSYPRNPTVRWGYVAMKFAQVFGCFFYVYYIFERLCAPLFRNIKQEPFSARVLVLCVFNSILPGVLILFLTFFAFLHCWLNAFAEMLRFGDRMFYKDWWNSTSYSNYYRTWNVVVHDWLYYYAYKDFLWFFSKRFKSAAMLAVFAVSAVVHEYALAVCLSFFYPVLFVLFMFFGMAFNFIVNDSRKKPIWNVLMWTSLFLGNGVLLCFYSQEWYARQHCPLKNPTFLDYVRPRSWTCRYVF
Nature of the experiment: Inhibitory activity against ACAT derived from human macrophage (microsomes of TPA-differentiated U937 cells). The experiment is classed as biochemical. The following applies: for Selectivity: Table 1, rat liver ACAT IC50 / human macrophage ACAT IC50; for IC50: human macrophage (U937/TPA) microsome, pH 7.4, 37° C., 30 minutes; for selectivity (times greater, human macrophage ACAT vs rat liver ACAT): linoleoylamide derivatives. As for the experimental part:
Inhibitory activity against ACAT derived from human macrophage
(§1) Using, as an enzyme source, microsomal fractions prepared in the manner described below under Preparation of Microsome from U937 cells [human monocyte-derived cells known to differentiate into macrophages by the addition of TPA (12-O-tetradecanoylphorbol 13-acetate)] differentiated with TPA, the inhibitory activity against ACAT in the microsome fractions was determined as in the following. The compound of the present invention was dissolved in dimethyl sulfoxide and used as a sample solution. [1-^14 C] […] Ethanol (1 ml) was added to stop the reaction, and n-hexane (4.5 ml) was added. The reaction mixture was centrifuged at 2,000 rpm for 2 minutes and the upper n-hexane layer was separated and recovered, whereby cholesterol oleate (reaction product) was extracted. n-Hexane was evaporated with a nitrogen gas and the residue was re-dissolved in n-hexane (50 μl), which was used as a sample for thin-layer chromatography. […] After developing, the spot of cholesterol oleate was colored with iodine. The spot was cut out and dissolved in a xylene scintillator (Aquasol-2, Daiichi Pure Chemicals Co., Ltd.). The amount of cholesterol oleate was determined with a liquid scintillation counter.
The cells thus scraped and the culture solution were centrifuged at 3,000 rpm for 5 minutes, and the cell fractions obtained as precipitate were once freezed at -70° C. and preserved. The cells preserved at -70° C. were thawed and homogenized at 4° C. in a Teflon homogenizer. The homogenate was centrifuged at 12,000 g for 15 minutes. The precipitate fractions containing nuclea and mitochondria were removed and the obtained supernatant was further centrifuged at 100,000 g for 60 minutes. The supernatant was discarded, and the obtained precipitate fractions were suspended in 150 mM potassium phosphate buffer (pH 7.4) and used as a microsomal fraction.

Experiment [2] relates to ACAT derived from rat liver. Nature of the experiment: Inhibitory activity against ACAT derived from rat liver microsome. The experiment is classed as biochemical. The following applies: pH 7.4, 37° C., 30 minutes. As for the experimental part: Inhibitory activity against ACAT derived from rat liver microsome
as §1, with “source, the” for “source,”, “prepared from rat liver” for “prepared”, “of Microsome,” for “of Microsome from U937 cells [human monocyte-derived cells known to differentiate into macrophages by the addition of TPA (12-O-tetradecanoylphorbol 13-acetate)] differentiated with TPA,”, “re-dissolved dissolved” for “re-dissolved”, “determined using” for “determined with”
The liver was removed from a fasted rat and thoroughly perfused with 0.25M sucrose solution. The liver was weighed, minced with scissors or razor and placed in a Teflon homogenizer. The liver was homogenized with 9 volumes [9 ml per g (wet weight) of liver] of 0.25M sucrose solution or 50 mM Tris-HCl buffer (pH 7.5) containing 0.25M sucrose and 5 mM MgCl2. The homogenate was centrifuged at 8,000-10,000 g for 10-15 minutes. The obtained supernatant was centrifuged at 105,000 g for 60-90 minutes. The sediment obtained from this centrifugation was suspended in 150 mM potassium phosphate buffer (pH 7.4) to give a microsomal fraction.

`CCC=CCC=CCC=CCC=CCC=CCCCC(=O)Nc1c(OC)cc(OC)cc1OC` [Compound 1, N-(2,4,6-trimethoxyphenyl)-5,8,11,14,17-eicosapentaenamide] showed a Selectivity in experiment [1] of 49.6. The half-maximal inhibitory concentration (IC50) in experiment [1] stood at 0.27 µM; in experiment [2] it was 13.4 µM.

In the case of `CCC=CCC=CCC=CCC=CCC=CCC=CCCC(=O)Nc1c(OC)cc(OC)cc1OC` [Compound 2, N-(2,4,6-trimethoxyphenyl)-4,7,10,13,16,19-docosahexaenamide], the Selectivity in experiment [1] is 40.6. Also, the IC50 in experiment [1] was determined as 0.5 µM; in experiment [2] it was 20.3 µM.

For `CCC=CCC=CCC=CCC=CCC=CCCCC(=O)Nc1c(C)cccc1C` [Compound 7, N-(2,6-dimethylphenyl)-5,8,11,14,17-eicosapentaenamide], the Selectivity in experiment [1] was 70.8. Moreover, the IC50 in experiment [1] worked out at 0.06 µM; in experiment [2] it was 4.25 µM.

In experiment [1], `CCC=CCC=CCC=CCC=CCC=CCCCC(=O)Nc1c(CC)cccc1CC` [Compound 9, N-(2,6-diethylphenyl)-5,8,11,14,17-eicosapentaenamide] gave a Selectivity of 60 and an IC50 of 0.018 µM. The same compound gave an IC50 in experiment [2] of 1.08 µM.

Turning to `CCC=CCC=CCC=CCC=CCC=CCC=CCCC(=O)Nc1c(CC)cccc1CC` [Compound 10, N-(2,6-diethylphenyl)-4,7,10,13,16,19-docosahexaenamide], in experiment [1], the Selectivity came out at 395 and the IC50 was 0.029 µM. In experiment [2], this compound came in with an IC50 of 11.5 µM.

`CCC=CCC=CCC=CCC=CCC=CCCCC(=O)NCCNC(=O)Nc1c(C(C)C)cccc1C(C)C` [Compound 13, N-(5,8,11,14,17-eicosapentaenoyl)-N'-(2,6-diisopropylanilinocarbonyl)ethylenediamine]: in experiment [1], the Selectivity is greater than 746. Also, the IC50 in experiment [1] is 0.67 µM; in experiment [2] it was greater than 500 µM.

In experiment [1], `CCC=CCC=CCC=CCC=CCC=CCC=CCCC(=O)NCCNC(=O)Nc1c(C(C)C)cccc1C(C)C` [Compound 14, N-(4,7,10,13,16,19-docosahexaenoyl)-N'-(2,6-diisopropylanilinocarbonyl)ethylenediamine] displayed a Selectivity greater than 111 and an IC50 of 4.52 µM. In experiment [2], this compound returned an IC50 greater than 500 µM.

In experiment [1], `CCC=CCC=CCC=CCC=CCC=CCCCC(=O)N1CCN(C(=O)Nc2c(C(C)C)cccc2C(C)C)CC1` [Compound 15, N-(5,8,11,14,17-eicosapentaenoyl)-N'-(2,6-diisopropylanilinocarbonyl)piperazine] displayed a Selectivity greater than 463. Also, the figures for the IC50 in experiment [1] and in experiment [2] were 1.08 µM and greater than 500 µM, respectively.

For `CCC=CCC=CCC=CCC=CCC=CCC=CCCC(=O)N1CCN(C(=O)Nc2c(C(C)C)cccc2C(C)C)CC1` [Compound 16, N-(4,7,10,13,16,19-docosahexaenoyl)-N'-(2,6-diisopropylanilinocarbonyl)piperazine], in experiment [1], the Selectivity is recorded as greater than 725 and the IC50 turned out to be 0.69 µM. The compound further gave an IC50 in experiment [2] greater than 500 µM.

In the case of `CCC=CCC=CCC=CCC=CCC=CCCCC(=O)NC1CCCCC1NC(=O)Nc1c(C(C)C)cccc1C(C)C` (stereo not drawn) [Compound 17, N-(5,8,11,14,17-eocosapentaenoyl)-N'-(2,6-diisopropylanilinocarbonyl)-1,2-diaminocyclohexane], in experiment [1], the Selectivity was greater than 269 and the IC50 is 1.86 µM. The IC50 in experiment [2] is greater than 500 µM.

Consider `CCC=CCC=CCC=CCC=CCC=CCC=CCCC(=O)NC1CCCCC1NC(=O)Nc1c(C(C)C)cccc1C(C)C` (stereo not drawn) [Compound 18, N-(4,7,10,13,16,19-docosahexaenoyl)-N'-(2,6-diisopropylanilinocarbonyl)-1,2-diaminocyclohexane], for which, in experiment [1], the Selectivity is recorded as greater than 190 and it took 2.63 µM to reach half-maximal inhibition (IC50). This compound displayed an IC50 in experiment [2] greater than 500 µM.

In experiment [1], `CCC=CCC=CCC=CCC=CCC=CCCCC(=O)Nc1ccc(CNC(=O)Nc2c(C(C)C)cccc2C(C)C)cc1` [Compound 19, N-{4-(5,8,11,14,17-eicosapentaenoylamino)phenylmethyl}-N'-(2,6-diisopropylphenyl)urea] came in with a Selectivity greater than 3333 and an IC50 of 0.15 µM. The compound also registered an IC50 in experiment [2] greater than 500 µM.

Take `CCC=CCC=CCC=CCC=CCC=CCC=CCCC(=O)Nc1ccc(CNC(=O)Nc2c(C(C)C)cccc2C(C)C)cc1` [Compound 20, N-{4-(4,7,10,13,16,19-docosahexaenoylamino)phenylmethyl}-N'-(2,6-diisopropylphenyl)urea]: in experiment [1], the Selectivity was 18.4 and the IC50 turned out to be 1.1 µM. Also, the IC50 in experiment [2] turned out to be 20.2 µM.

Regarding `CCC=CCC=CCC=CCC=CCC=CCCCC(=O)NCc1ccc(NC(=O)Nc2c(C(C)C)cccc2C(C)C)cc1` [Compound 21, N-{4-(5,8,11,14,17-eicosapentaenoylaminomethyl)phenyl}-N'-(2,6-diisopropylphenyl)urea], in experiment [1], the Selectivity is recorded as greater than 75.3 and the IC50 worked out at 6.64 µM. The IC50 in experiment [2] was greater than 500 µM.

In experiment [1], `CCC=CCC=CCC=CCC=CCC=CCC=CCCC(=O)NCc1ccc(NC(=O)Nc2c(C(C)C)cccc2C(C)C)cc1` [Compound 22, N-{4-(4,7,10,13,16,19-docosahexaenoylaminomethyl)phenyl}-N'-(2,6-diisopropylphenyl)urea] registered a Selectivity greater than 27.9 and an IC50 of 17.9 µM. Moreover, the IC50 in experiment [2] is greater than 500 µM.

Take `CCCCC/C=C\C/C=C\CCCCCCCC(=O)Nc1c(C(C)C)cccc1C(C)C` [reference compound]: in experiment [1], the IC50 is 0.006 µM and the “selectivity (times greater, human macrophage ACAT vs rat liver ACAT)” value is “about fifteen times”. The compound further registered an IC50 in experiment [2] of 0.09 µM.

With `CCCCC/C=C\C/C=C\CCCCCCCC(=O)N1CCN(C(=O)Nc2c(C(C)C)cccc2C(C)C)CC1` [reference compound], the IC50 was 4.61 µM in experiment [1] and no less than 500 µM in experiment [2]. Further, in experiment [1] (human macrophage ACAT), the “ACAT inhibitory activity (in words)” value was “low activity”.

Turning to `CCCCC/C=C\C/C=C\CCCCCCCC(=O)Nc1c(OC)cc(OC)cc1OC` [reference compound], the concentration for half-maximal inhibition (IC50) in experiment [1] was 0.67 µM; in experiment [2], 0.87 µM. In addition, in experiment [1], the “selectivity (times greater, human macrophage ACAT vs rat liver ACAT)” value was “scarce selectivity”.

In the case of `CCCCCC=CCC=CCCCCCCCC(=O)Nc1c(C)cccc1C` [reference compound], the IC50 in experiment [1] stood at 0.07 µM; in experiment [2] it was 0.14 µM. Also, the “selectivity (times greater, human macrophage ACAT vs rat liver ACAT)” value in experiment [1] is recorded as “about twice”.

For `CCCCC/C=C\C/C=C\CCCCCCCC(=O)Nc1c(CC)cccc1CC` [reference compound], in experiment [1], the IC50 came to 0.02 µM and the “selectivity (times greater, human macrophage ACAT vs rat liver ACAT)” value was “about five times”. Besides, inhibition in experiment [2] was half-maximal at 0.1 µM (IC50).
